Results reported in ChEMBL document CHEMBL4837226, “Discovery of pyrrole derivatives for the treatment of glioblastoma and chronic myeloid leukemia” (Eur J Med Chem, 2021).
Counter-ions that a name gives are not always drawn.

Columns and labels:
Tubulin = assay: Inhibition of tubulin polymerization (unknown origin) assessed as reduction in tubulin assembly preincubated for 15 mins followed by GTP addition by spectrophotometric method; format: protein-complex assay, Homo sapiens
MCF7 = assay: Cytotoxicity against human MCF7 cells assessed as cell growth inhibition measured after 96 hrs; format: functional, cell-based; settings: MCF7, 96 h
U-87 MG [1] = assay: Cytotoxicity against human U-87MG cells assessed as cell growth inhibition by measuring maximum efficacy measured after 48 hrs by MTS colorimetric assay relative to control; format: functional, U-87MG ATCC
SW-620 = assay: Cytotoxicity against human SW-620 cells assessed as cell growth inhibition measured after 48 hrs by XTT dye based assay; format: functional; settings: SW-620, 48 h
KU812 cell line = assay: Cytotoxicity against Bcr-Abl expressing human KU812 cells assessed as cell growth inhibition measured after 48 hrs by MTT assay; format: functional, cell-based; settings: KU812, 48 h
KBM5 [2] = assay: Cytotoxicity against imatinib mesylate resistant wild-type human KBM5 cells expressing T315I mutant assessed as cell growth inhibition measured after 48 hrs by MTT assay; format: functional, cell-based; settings: KBM5, 48 h
U-87 MG [3] = assay: Cytotoxicity against human U-87MG cells assessed as cell growth inhibition measured after 48 hrs by MTS colorimetric assay; format: functional, cell-based, U-87MG ATCC
[4] = Cytotoxicity against human U343MG cells assessed as cell growth inhibition by measuring maximum efficacy measured after 72 hrs by MTS colorimetric assay relative to control; format: functional; settings: U-343MG
Tubulin (Homo sapiens) [5] = biological target: T1, Tubulin (Homo sapiens) (UniProt P68371+Q9H4B7+P0DPH7+P68366+Q13509+Q71U36+P04350+Q3ZCM7+P07437+P68363+Q9BQE3+Q6PEY2+Q13885+Q9BVA1+Q9BUF5); assay: Inhibition of [3H]Colchicine binding to tubulin (unknown origin) at 5 uM measured after 10 mins by DEAE-Cellulose filter method relative to control; format: protein-complex assay
SW480 = assay: Cytotoxicity against human SW480 cells assessed as cell growth inhibition measured after 48 hrs by XTT dye based assay; format: functional; settings: SW480, 48 h
[6] = Cytotoxicity against human U-343MG cells assessed as cell growth inhibition measured after 72 hrs by MTS colorimetric assay; format: functional, cell-based
KBM5 [7] = assay: Cytotoxicity against Imatinib mesylate sensitive wild-type human KBM5 cells assessed as cell growth inhibition measured after 48 hrs by MTT assay; format: functional, cell-based; settings: KBM5, 48 h
Tubulin (Homo sapiens) [8] = biological target: T1, Tubulin (Homo sapiens); assay: Inhibition of [3H]Colchicine binding to tubulin (unknown origin) at 1 uM measured after 10 mins by DEAE-Cellulose filter method relative to control; format: protein-complex assay

| IC50 (Tubulin) [nM] | inhibition (Tubulin (Homo sapiens) [5]) [%] | inhibition (Tubulin (Homo sapiens) [8]) [%] | SMILES | IC50 (MCF7) [nM] | further results |
| --- | --- | --- | --- | --- | --- |
| 580 | 87 |  | COc1cc(C(=O)c2cn(-c3ccc(F)cc3)cc2-c2ccncc2)cc(OC)c1OC | 9 | Emax (U-87 MG [1]): 56%; IC50 (SW-620): 66.5 nM; IC50 (KU812 cell line): 12.4 nM; IC50 (KBM5 [2]): 13.1 nM; IC50 (U-87 MG [3]): 39.1 nM; Emax [4]: 75.1%; IC50 (SW480): 934 nM; IC50 [6]: 432 nM; IC50 (KBM5 [7]): 12.2 nM |
| 520 | 74 |  | COc1cc(C(=O)c2cn(-c3cccc(C)c3)cc2-c2ccsc2)cc(OC)c1OC | 65 |  |
| 1400 | 68 |  | COc1cc(C(=O)c2cn(-c3ccc(F)cc3)cc2-c2ncco2)cc(OC)c1OC | 93 |  |
| 470 | 95 | 71 | COc1cc(C(=O)c2cn(-c3ccc(C)cc3)cc2-c2ccoc2)cc(OC)c1OC | 18 |  |
| 780 | 66 |  | COc1cc(C(=O)c2cn(-c3cccc(C)c3)cc2-c2ccccn2)cc(OC)c1OC | 140 |  |
|  |  |  | Cc1ccc(NC(=O)c2ccc(CN3CCN(C)CC3)cc2)cc1Nc1nccc(-c2cccnc2)n1 [IMATINIB MESYLATE] |  | IC50 (KU812 cell line): 311 nM; IC50 (KBM5 [2]): 311 nM; IC50 (KBM5 [7]): 152 nM |
| 590 | 88 |  | COc1cc(C(=O)c2cn(-c3cccc(C)c3)cc2-c2ccncc2)cc(OC)c1OC | 65 |  |
| 460 | 92 | 71 | COc1cc(C(=O)c2cn(-c3ccc(C)cc3)cc2-c2ccco2)cc(OC)c1OC | 22 |  |
| 720 | 90 | 45 | COc1cc(C(=O)c2cn(-c3ccc(C)cc3)cc2-c2ncco2)cc(OC)c1OC | 42 |  |
| 460 | 83 |  | COc1cc(C(=O)c2cn(-c3ccc(C)cc3)cc2-c2ccccn2)cc(OC)c1OC | 36 |  |
|  |  |  | Cc1ccc(C(=O)Nc2ccc(CN3CCN(C)CC3)c(C(F)(F)F)c2)cc1C#Cc1cnc2cccnn12 [PONATINIB] |  | IC50 (KU812 cell line): 8.5 nM; IC50 (KBM5 [2]): 10.6 nM; IC50 (KBM5 [7]): 10.2 nM |
| 380 | 87 | 71 | COc1cc(C(=O)c2cn(-c3ccc(F)cc3)cc2-c2ccoc2)cc(OC)c1OC | 15 |  |
| 560 | 80 |  | COc1cc(C(=O)c2cn(-c3cccc(C)c3)cc2-c2ccco2)cc(OC)c1OC | 23 |  |
| 740 | 78 |  | COc1cc(C(=O)c2cn(-c3cccc(C)c3)cc2-c2cccnc2)cc(OC)c1OC | 52 |  |
| 440 | 94 | 70 | COc1cc(C(=O)c2cn(-c3ccc(C)cc3)cc2-c2ccncc2)cc(OC)c1OC | 9 |  |
| 560 | 80 |  | COc1cc(C(=O)c2cn(-c3ccc(F)cc3)cc2-c2cccnc2)cc(OC)c1OC | 39 |  |
| 420 | 87 | 64 | COc1cc(C(=O)c2cn(-c3cccc(C)c3)cc2-c2ccoc2)cc(OC)c1OC | 21 |  |
| 490 | 83 |  | COc1cc(C(=O)c2cn(-c3cccc(C)c3)cc2-c2nccs2)cc(OC)c1OC | 20 |  |
| 780 | 69 |  | COc1cc(C(=O)c2cn(-c3ccc(F)cc3)cc2-c2nccs2)cc(OC)c1OC | 22 |  |
| 820 | 44 |  | COc1cc(C(=O)c2cn(-c3ccc(F)cc3)cc2-c2ccccn2)cc(OC)c1OC | 73 |  |
| 560 | 91 | 63 | COc1cc(C(=O)c2cn(-c3ccc(C)cc3)cc2-c2nccs2)cc(OC)c1OC | 14 |  |
| 470 | 82 |  | COc1cc(C(=O)c2cn(-c3ccc(F)cc3)cc2-c2ccco2)cc(OC)c1OC | 17 |  |
| 640 | 92 | 58 | COc1cc(C(=O)c2cn(-c3ccc(C)cc3)cc2-c2cccnc2)cc(OC)c1OC | 19 |  |
| 720 | 77 |  | COc1cc(C(=O)c2cn(-c3cccc(C)c3)cc2-c2ncco2)cc(OC)c1OC | 75 |  |
| 550 | 76 |  | COc1cc(C(=O)c2cn(-c3ccc(F)cc3)cc2-c2ccsc2)cc(OC)c1OC | 15 |  |
